# Values of other authors, collected in publication PMC5762859, “Distribution analysis of epertinib in brain metastasis of HER2-positive breast cancer by imaging mass spectrometry and prospect for antitumor activity” (Scientific Reports, 2018).
# Legend:
# [1] = healthy volunteers, single oral 250 mg [14C]-lapatinib; cited from earlier work
# [2] = tested on: HER2-positive metastatic breast cancer patients; conditions: historical data, combination with trastzumab; cited from earlier work
# P-glycoprotein (P-gp) = target: T1, P-glycoprotein (P-gp) (Homo sapiens, UniProt P08183); conditions: cited from earlier work
# T1 construct: permeability and efflux ratio of epertinib across Caco-2 cell monolayers; endogenous in cells; host or cells: Caco-2
# T1 sequence (P08183 whole entry): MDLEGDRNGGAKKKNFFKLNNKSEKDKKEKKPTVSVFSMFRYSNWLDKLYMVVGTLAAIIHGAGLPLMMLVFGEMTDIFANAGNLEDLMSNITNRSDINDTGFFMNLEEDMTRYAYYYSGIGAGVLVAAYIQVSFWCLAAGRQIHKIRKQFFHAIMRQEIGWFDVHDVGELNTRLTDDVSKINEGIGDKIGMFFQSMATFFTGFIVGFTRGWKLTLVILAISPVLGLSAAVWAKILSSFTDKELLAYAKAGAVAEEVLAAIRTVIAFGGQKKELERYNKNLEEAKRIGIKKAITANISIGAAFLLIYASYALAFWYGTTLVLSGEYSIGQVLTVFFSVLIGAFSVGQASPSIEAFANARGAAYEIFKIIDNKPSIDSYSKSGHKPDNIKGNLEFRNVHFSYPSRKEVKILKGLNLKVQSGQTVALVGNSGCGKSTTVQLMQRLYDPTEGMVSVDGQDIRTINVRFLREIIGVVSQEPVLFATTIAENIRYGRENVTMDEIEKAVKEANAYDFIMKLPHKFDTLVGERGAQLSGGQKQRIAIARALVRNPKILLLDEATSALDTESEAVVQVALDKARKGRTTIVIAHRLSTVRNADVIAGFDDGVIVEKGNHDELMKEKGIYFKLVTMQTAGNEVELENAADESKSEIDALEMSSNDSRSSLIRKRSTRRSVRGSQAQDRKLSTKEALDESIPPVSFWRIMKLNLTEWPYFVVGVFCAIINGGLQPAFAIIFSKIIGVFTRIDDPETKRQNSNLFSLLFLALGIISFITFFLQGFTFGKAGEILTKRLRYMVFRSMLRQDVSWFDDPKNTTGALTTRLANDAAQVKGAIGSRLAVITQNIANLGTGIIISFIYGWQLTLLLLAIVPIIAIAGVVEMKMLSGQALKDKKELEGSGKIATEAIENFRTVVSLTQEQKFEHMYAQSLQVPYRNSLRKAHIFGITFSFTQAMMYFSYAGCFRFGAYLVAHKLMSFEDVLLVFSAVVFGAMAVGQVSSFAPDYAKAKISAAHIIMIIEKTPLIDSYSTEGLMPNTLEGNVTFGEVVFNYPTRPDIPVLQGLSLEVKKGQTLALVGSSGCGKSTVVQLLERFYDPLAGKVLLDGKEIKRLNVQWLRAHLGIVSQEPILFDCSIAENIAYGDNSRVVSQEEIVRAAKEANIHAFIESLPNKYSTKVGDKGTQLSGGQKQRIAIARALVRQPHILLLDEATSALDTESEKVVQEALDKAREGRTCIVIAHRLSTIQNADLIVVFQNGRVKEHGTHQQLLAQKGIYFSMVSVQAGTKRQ
smiles,measurement,setting,value
"CS(=O)(=O)CCNCc1ccc(-c2ccc3ncnc(Nc4ccc(OCc5cccc(F)c5)c(Cl)c4)c3c2)o1 [Lapatinib, N-{3-chloro-4-[(3-fluorobenzyl)oxy]phenyl}-6-[5-({[2-(methylsulfonyl)ethyl]amino}methyl)-2-furyl]-4-quinazolinamine, reference compound]",Mean plasma concentration of lapatinib at Cmax,[1],330 ng/mL
same,Objective response rate (ORR),[2],10.3%
same,P-gp substrate,P-glycoprotein (P-gp),substrates
